Paper PMC10102027, “Helquat dyes targeting G-quadruplexes as a new class of anti-HIV-1 inhibitors” (Scientific Reports, 2023)

Key:
[1] = test system: HIV-1 LTR G-quadruplex template (G4 LTR Stop); test: Taq polymerase stop assay; type: biochemical; conditions: for Fold change, all regions (A, B and C) together: normalized against control
Experimental: To address specifically the positions in the HIV-1 promoter region that are affected by the binding of G4-stabilizing agents, we performed a Taq polymerase stop assay. The wild-type LTR oligonucleotide was extended at the […] to include a primer-annealing region and used as a template for a single-cycle Taq polymerase reaction. The elongation of the radioactively labelled primer was performed at 45 °C in the presence or absence of the tested compounds and controls.
A Taq polymerase stop assay was carried out as described in a previous study. Briefly, the primer (G4 LTR primer, Supplementary Table S1) was 5′-end labelled with [γ-^32P]ATP using T4 polynucleotide kinase at 37 °C for 30 min. The T4 polynucleotide kinase was then inactivated by incubation at 65 °C for 5 min. The radioactively labelled primer was column-purified and stored at − 20 °C for further use. The labelled primer (1.7 pmol) was annealed to the template (2.1 pmol) in the LiCaco buffer and extended with the Go Taq DNA polymerase (2U/reaction, Promega) at 45 °C for 45 min. Samples were incubated with G-quadruplex-ligands at 45 °C for 45 min before DNA polymerase addition. The reactions were stopped by a denaturing solution (80% formamide, 10% glycerol, 0.025% xylen cyanol, 0.025% bromphenol blue and 10 mM EDTA pH 8); extension products were separated on 15% denaturing gel and visualized by phosphorimaging. The pixel intensity of bands was calculated using 1D gel analysis in ImageQuant TL software version 8.1 (GE HealthCare) after automatic background subtraction by Rolling Ball method.

[2] = test system: G-quadruplexes in the HIV-1 LTR (G4 LTR FRET oligonucleotide); test: FRET melting assay; type: binding; conditions: 2 μM compound, 0.2 μM oligonucleotide
[3] = 2.5 µM, pixel intensity normalized against negative control

NCCOc1cc(C(=O)Nc2cc(OCCN)c3ccccc3n2)nc(C(=O)Nc2cc(OCCN)c3ccccc3n2)c1 [PDS, pyridostatin, reference compound]
Fold change, all regions (A, B and C) together ([1]; 1 μM): 2.0
Fold change, all regions (A, B and C) together ([1]; 2.5 μM): 2.4
Fold change: A (G-patch 6′) [1, 3]: 2.6
Fold change: B (G-patch 6) [1, 3]: 2.7
Fold change: C (G-patch 5) [1, 3]: 1.6
Tm ([2]; 100 mM KCl, mean and standard error, three experiments): 93 ± 13 °C
ΔTm ([2]; average Tm minus average Tm of PBS): 42 °C
